Data from patent US8952024B2, “Herbicidal pyrimidone derivatives” (E I du Pont de Nemours and Company, priority 2009, dated 2015).

Assays:
Type in all cases: in vivo
[1] = tested on: large crabgrass (Digitaria sanguinalis); assay: Test A pre-/postemergence plant response
Outline: (§1)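 Both pre- and postemergence treatments are applied simultaneously, using chemicals formulated in a non-phytotoxic solvent mixture with surfactant. Postemergence plants are 2–10 cm high with one to two leaves. After approximately ten days in a greenhouse, injury is scored visually from 0 (none) to 100 (complete control) relative to untreated plants.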

[2] = tested on: morningglory (Ipomoea spp.); assay: Test A pre-/postemergence plant response
Outline: as §1

[3] = tested on: velvetleaf (Abutilon theophrasti); assay: Test A pre-/postemergence plant response
Outline: as §1

[4] = tested on: wheat (Triticum aestivum); assay: Test A pre-/postemergence plant response
Outline: as §1

[5] = tested on: cocklebur (Xanthium strumarium); assay: Test B pre-/postemergence plant response; conditions: for Cocklebur plant response rating (0 to 100 scale): 0 is no effect, 13 to 15 days
Outline: (§2)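 Visual injury, 0–100 scale (100 = complete control), rated against controls after 13 to 15 days in greenhouse. Pre-emergence: seeds in loam/sand soil, treated at planting. Post-emergence: 1- to 4-leaf plants (2 to 18 cm) in peat/vermiculite medium. Compounds formulated in non-phytotoxic solvent with surfactant.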

[6] = tested on: downy bromegrass (Bromus tectorum); assay: Test B pre-/postemergence plant response; conditions: for Bromegrass, Downy plant response rating (0 to 100 scale): 0 is no effect, 13 to 15 days
Outline: as §2

[7] = tested on: giant foxtail (Setaria faberii); assay: Test B pre-/postemergence plant response; conditions: for Foxtail, Giant plant response rating (0 to 100 scale): 0 is no effect, 13 to 15 days
Outline: as §2

[8] = tested on: goosegrass (Eleusine indica); assay: Test B pre-/postemergence plant response; conditions: for Goosegrass plant response rating (0 to 100 scale): 0 is no effect, 13 to 15 days
Outline: as §2

[9] = tested on: green foxtail (Setaria viridis); assay: Test B pre-/postemergence plant response; conditions: for Foxtail, Green plant response rating (0 to 100 scale): 0 is no effect, 13 to 15 days
Outline: as §2

[10] = tested on: kochia (Kochia scoparia); assay: Test B pre-/postemergence plant response; conditions: for Kochia plant response rating (0 to 100 scale): 0 is no effect, 13 to 15 days
Outline: as §2

[11] = tested on: morningglory (Ipomoea coccinea); assay: Test B pre-/postemergence plant response; conditions: for Morningglory plant response rating (0 to 100 scale): 0 is no effect, 13 to 15 days
Outline: as §2

[12] = tested on: pigweed (Amaranthus retroflexus); assay: Test B pre-/postemergence plant response; conditions: for Pigweed plant response rating (0 to 100 scale): 0 is no effect, 13 to 15 days
Outline: as §2

[13] = tested on: wheat (Triticum aestivum); assay: Test B pre-/postemergence plant response; conditions: for Wheat plant response rating (0 to 100 scale): 0 is no effect, 13 to 15 days
Outline: as §2

[14] = Postemergence, 125 g ai/ha, visual injury, 0 to 100 scale (0 no effect, 100 complete control), approx. ten days
[15] = Postemergence, 500 g ai/ha, 0 to 100 scale, 0 = no effect, 100 = complete control, approx. ten days
[16] = Preemergence, 125 g ai/ha, 0 to 100 scale, 0 = no effect, 100 = complete control
[17] = Preemergence, 500 g ai/ha, visual injury, 0 to 100 scale (0 no effect, 100 complete control), approx. ten days
[18] = 31 g ai/ha, postemergence, scale 0 to 100, 0 is no effect, 100 is complete control
[19] = 62 g ai/ha, postemergence, 100 is complete control
[20] = Postemergence, 125 g ai/ha, visual rating after 13 to 15 days, scale 0 (no effect) to 100 (complete control)
[21] = Postemergence, 250 g ai/ha, scale 0 to 100 (0 no effect, 100 complete control)
[22] = 250 g ai/ha, Preemergence, 0 to 100 scale
[23] = Preemergence, 31 g ai/ha, scale 0 to 100 (0 no effect, 100 complete control)
[24] = Preemergence, 62 g ai/ha, scale 0 to 100, 0 no effect, 100 complete control
[25] = Preemergence, 125 g ai/ha, scale 0 to 100, 0 no effect, 100 complete control

O=C1CCCC(O)=C1C(=O)c1cnc(-c2ccc(Br)cc2)n(-c2ccccc2)c1=O [Compound 70]
Crabgrass, Large plant response rating [1, 14]: 50
Plant response rating, Crabgrass, Large [1, 15]: 90
Plant response rating, Crabgrass, Large [1, 16]: 40
Plant response rating, Crabgrass, Large [1, 17]: 90
Morningglory plant response rating [2, 14]: 100
Plant response rating, Morningglory [2, 15]: 100
Plant response rating, Morningglory [2, 16]: 0
Plant response rating, Morningglory [2, 17]: 10
Velvetleaf plant response rating [3, 14]: 100
Plant response rating, Velvetleaf [3, 15]: 100
Plant response rating, Velvetleaf [3, 16]: 70
Plant response rating, Velvetleaf [3, 17]: 80
Wheat plant response rating [4, 14]: 0
Plant response rating, Wheat [4, 15]: 0
Plant response rating, Wheat [4, 16]: 0
Plant response rating, Wheat [4, 17]: 0
Plant response rating, Cocklebur [5, 18]: 0
Cocklebur plant response rating (0 to 100 scale) [5, 19]: 0
Plant response rating, Cocklebur [5, 20]: 40
Plant response rating, Cocklebur [5, 21]: 40
Plant response rating, Bromegrass, Downy [6, 18]: 10
Bromegrass, Downy plant response rating (0 to 100 scale) [6, 19]: 50
Plant response rating, Bromegrass, Downy [6, 20]: 70
Plant response rating, Bromegrass, Downy [6, 21]: 70
Plant response rating, Foxtail, Giant [7, 18]: 75
Foxtail, Giant plant response rating (0 to 100 scale) [7, 19]: 85
Plant response rating, Foxtail, Giant [7, 20]: 95
Plant response rating, Foxtail, Giant [7, 21]: 98
Plant response rating, Goosegrass [8, 18]: 75
Goosegrass plant response rating (0 to 100 scale) [8, 19]: 85
Plant response rating, Goosegrass [8, 20]: 85
Plant response rating, Goosegrass [8, 21]: 95
Plant response rating, Foxtail, Green [9, 18]: 80
Foxtail, Green plant response rating (0 to 100 scale) [9, 19]: 85
Plant response rating, Foxtail, Green [9, 20]: 98
Plant response rating, Foxtail, Green [9, 21]: 98
Plant response rating, Kochia [10, 18]: 65
Kochia plant response rating (0 to 100 scale) [10, 19]: 65
Plant response rating, Kochia [10, 20]: 75
Plant response rating, Kochia [10, 21]: 98
Plant response rating, Morningglory [11, 18]: 98
Morningglory plant response rating (0 to 100 scale) [11, 19]: 100
Plant response rating, Morningglory [11, 20]: 100
Plant response rating, Morningglory [11, 21]: 100
Plant response rating, Pigweed [12, 18]: 85
Pigweed plant response rating (0 to 100 scale) [12, 19]: 98
Plant response rating, Pigweed [12, 20]: 98
Plant response rating, Pigweed [12, 21]: 100
Plant response rating, Wheat [13, 18]: 5
Wheat plant response rating (0 to 100 scale) [13, 19]: 20
Plant response rating, Wheat [13, 20]: 35
Plant response rating, Wheat [13, 21]: 35

CCCc1ncc(C(=O)C2=C(O)CCCC2=O)c(=O)n1CCC [Compound 72]
Crabgrass, Large plant response rating [1, 14]: 80
Plant response rating, Crabgrass, Large [1, 15]: 90
Plant response rating, Crabgrass, Large [1, 16]: 70
Plant response rating, Crabgrass, Large [1, 17]: 100
Morningglory plant response rating [2, 14]: 90
Plant response rating, Morningglory [2, 15]: 90
Plant response rating, Morningglory [2, 17]: 70
Velvetleaf plant response rating [3, 14]: 100
Plant response rating, Velvetleaf [3, 15]: 100
Plant response rating, Velvetleaf [3, 16]: 90
Plant response rating, Velvetleaf [3, 17]: 100
Wheat plant response rating [4, 14]: 0
Plant response rating, Wheat [4, 15]: 0
Plant response rating, Wheat [4, 16]: 0
Plant response rating, Wheat [4, 17]: 0
Plant response rating, Cocklebur [5, 18]: 75
Cocklebur plant response rating (0 to 100 scale) [5, 19]: 80
Plant response rating, Cocklebur [5, 22]: 80
Plant response rating, Cocklebur [5, 20]: 90
Plant response rating, Cocklebur [5, 21]: 95
Plant response rating, Cocklebur [5, 23]: 10
Plant response rating, Cocklebur [5, 24]: 50
Plant response rating, Cocklebur [5, 25]: 70
Plant response rating, Bromegrass, Downy [6, 18]: 0
Bromegrass, Downy plant response rating (0 to 100 scale) [6, 19]: 0
Plant response rating, Bromegrass, Downy [6, 22]: 0
Plant response rating, Bromegrass, Downy [6, 20]: 0
Plant response rating, Bromegrass, Downy [6, 21]: 20
Plant response rating, Bromegrass, Downy [6, 23]: 0
Plant response rating, Bromegrass, Downy [6, 24]: 0
Plant response rating, Bromegrass, Downy [6, 25]: 0
Plant response rating, Foxtail, Giant [7, 18]: 65
Foxtail, Giant plant response rating (0 to 100 scale) [7, 19]: 70
Plant response rating, Foxtail, Giant [7, 22]: 65
Plant response rating, Foxtail, Giant [7, 20]: 75
Plant response rating, Foxtail, Giant [7, 21]: 80
Plant response rating, Foxtail, Giant [7, 23]: 0
Plant response rating, Foxtail, Giant [7, 24]: 5
Plant response rating, Foxtail, Giant [7, 25]: 10
Plant response rating, Goosegrass [8, 18]: 60
Goosegrass plant response rating (0 to 100 scale) [8, 19]: 65
Plant response rating, Goosegrass [8, 22]: 100
Plant response rating, Goosegrass [8, 20]: 65
Plant response rating, Goosegrass [8, 21]: 70
Plant response rating, Goosegrass [8, 23]: 60
Plant response rating, Goosegrass [8, 24]: 98
Plant response rating, Goosegrass [8, 25]: 100
Plant response rating, Foxtail, Green [9, 18]: 10
Foxtail, Green plant response rating (0 to 100 scale) [9, 19]: 70
Plant response rating, Foxtail, Green [9, 22]: 90
Plant response rating, Foxtail, Green [9, 20]: 90
Plant response rating, Foxtail, Green [9, 21]: 90
Plant response rating, Foxtail, Green [9, 23]: 0
Plant response rating, Foxtail, Green [9, 24]: 0
Plant response rating, Foxtail, Green [9, 25]: 50
Plant response rating, Kochia [10, 18]: 75
Kochia plant response rating (0 to 100 scale) [10, 19]: 85
Plant response rating, Kochia [10, 22]: 85
Plant response rating, Kochia [10, 20]: 90
Plant response rating, Kochia [10, 21]: 90
Plant response rating, Kochia [10, 23]: 45
Plant response rating, Kochia [10, 24]: 75
Plant response rating, Kochia [10, 25]: 85
Plant response rating, Morningglory [11, 18]: 20
Morningglory plant response rating (0 to 100 scale) [11, 19]: 85
Plant response rating, Morningglory [11, 20]: 90
Plant response rating, Morningglory [11, 21]: 90
Plant response rating, Morningglory [11, 23]: 0
Plant response rating, Morningglory [11, 24]: 55
Plant response rating, Morningglory [11, 25]: 65
Plant response rating, Pigweed [12, 18]: 80
Pigweed plant response rating (0 to 100 scale) [12, 19]: 100
Plant response rating, Pigweed [12, 20]: 100
Plant response rating, Pigweed [12, 21]: 100
Plant response rating, Pigweed [12, 23]: 98
Plant response rating, Pigweed [12, 24]: 98
Plant response rating, Pigweed [12, 25]: 100
Plant response rating, Wheat [13, 18]: 0
Wheat plant response rating (0 to 100 scale) [13, 19]: 5
Plant response rating, Wheat [13, 20]: 10
Plant response rating, Wheat [13, 21]: 10
Plant response rating, Wheat [13, 23]: 0
Plant response rating, Wheat [13, 24]: 0
Plant response rating, Wheat [13, 25]: 0
